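1) Cells in 96-well plates. 2) Compound, 48 h, 5 concentrations. 3) Linear interpolation between surrounding doses. 4) Unreached endpoint = highest concentration. GI50 = concentration required for 50% inhibition of growth. TGI: concentration producing complete growth inhibition.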
Experiments:
Experiment in all cases: inhibition of tumour cell growth, NCI panel, 48 h
NCI-H226 lung = tested on: NCI-H226 lung
SK-MEL-5 melanoma = tested on: SK-MEL-5 melanoma
HOP-62 NSCLC = tested on: HOP-62 NSCLC
EKVX NSCLC = tested on: EKVX NSCLC
SNB-75 CNS = tested on: SNB-75 CNS
TK-10 renal = tested on: TK-10 renal
786-0 renal = tested on: 786-0 renal
OVCAR-8 ovarian = tested on: OVCAR-8 ovarian
SK-MEL-2 melanoma = tested on: SK-MEL-2 melanoma
SN12C renal = tested on: SN12C renal

BrC(Br)=C1C(=C(Br)Br)C(Br)C1Br (stereo not given)
TGI (NCI-H226 lung): 0.67 µM
TGI (SK-MEL-5 melanoma): 2.04 µM
TGI (HOP-62 NSCLC): 2.88 µM
TGI (EKVX NSCLC): 4.98 µM
TGI (SNB-75 CNS): 5.62 µM
TGI (TK-10 renal): 1.93 µM
TGI (786-0 renal): 0.882 µM
TGI (OVCAR-8 ovarian): 5.46 µM
TGI (SK-MEL-2 melanoma): 7.7 µM
TGI (SN12C renal): 2.31 µM

O=C(O)C[C@@H](Cl)[C@H](NC(=O)OCc1ccccc1)C(=O)O
TGI (NCI-H226 lung): > 100 µM
TGI (SK-MEL-5 melanoma): > 100 µM
TGI (HOP-62 NSCLC): > 100 µM
TGI (EKVX NSCLC): > 100 µM
TGI (SNB-75 CNS): > 100 µM
TGI (TK-10 renal): > 100 µM
TGI (786-0 renal): > 100 µM
TGI (OVCAR-8 ovarian): > 100 µM
TGI (SK-MEL-2 melanoma): > 100 µM
TGI (SN12C renal): > 100 µM

COc1cc(/C=C(\NC(=O)c2ccccc2)c2nc3ccc4c(c3[nH]2)C(=O)c2ccccc2C4=O)cc(OC)c1OC
TGI (NCI-H226 lung): > 100 µM
TGI (SK-MEL-5 melanoma): > 100 µM
TGI (HOP-62 NSCLC): > 100 µM
TGI (EKVX NSCLC): > 100 µM
TGI (SNB-75 CNS): 75.3 µM
TGI (TK-10 renal): > 100 µM
TGI (786-0 renal): > 100 µM
TGI (OVCAR-8 ovarian): > 100 µM
TGI (SK-MEL-2 melanoma): > 100 µM
TGI (SN12C renal): > 100 µM

COc1cc2c3cc1Oc1c(OC)c(OC)cc4c1C(=NCC4)Cc1ccc(cc1)Oc1cc(ccc1O)C[C@H]3N(C)CC2
TGI (NCI-H226 lung): 61.2 µM
TGI (SK-MEL-5 melanoma): 24.6 µM
TGI (HOP-62 NSCLC): 44.7 µM
TGI (EKVX NSCLC): > 100 µM
TGI (SNB-75 CNS): 40.2 µM
TGI (TK-10 renal): 43.1 µM
TGI (786-0 renal): 22.8 µM
TGI (OVCAR-8 ovarian): 32 µM
TGI (SK-MEL-2 melanoma): 31.1 µM
TGI (SN12C renal): 75.2 µM

O=C(/C=C/c1ccc(Cl)cc1)c1ccccc(=O)c1O
TGI (NCI-H226 lung): 5.45 µM
TGI (SK-MEL-5 melanoma): 4.93 µM
TGI (HOP-62 NSCLC): 21.1 µM
TGI (EKVX NSCLC): 18.3 µM
TGI (SNB-75 CNS): 12.3 µM
TGI (TK-10 renal): 19.1 µM
TGI (786-0 renal): 32.1 µM
TGI (OVCAR-8 ovarian): > 100 µM
TGI (SK-MEL-2 melanoma): 11.8 µM
TGI (SN12C renal): 4.58 µM

COC1C(O)CC(OC2CC(OC3CC(O[C@@H]4C(=O)c5c(cc6cc(OC7CC(OC8CC(O)C(O)C(C)O8)C(O)C(C)O7)c(C)c(O)c6c5O)CC4[C@H](OC)C(=O)O)OC(C)C3O)OC(C)C2O)OC1C (stereo not given in full)
GI50 (NCI-H226 lung): 1.15 µM
TGI (NCI-H226 lung): 9.72 µM
GI50 (SK-MEL-5 melanoma): 1.34 µM
TGI (SK-MEL-5 melanoma): 8.74 µM
GI50 (HOP-62 NSCLC): 1.63 µM
TGI (HOP-62 NSCLC): > 33.3 µM
GI50 (EKVX NSCLC): 2.31 µM
TGI (EKVX NSCLC): > 33.3 µM
GI50 (SNB-75 CNS): 1.03 µM
TGI (SNB-75 CNS): 7.89 µM
GI50 (TK-10 renal): 4.56 µM
TGI (TK-10 renal): > 33.3 µM
GI50 (786-0 renal): 2.1 µM
TGI (786-0 renal): > 33.3 µM
GI50 (OVCAR-8 ovarian): 2.27 µM
TGI (OVCAR-8 ovarian): > 33.3 µM
GI50 (SK-MEL-2 melanoma): 1.47 µM
TGI (SK-MEL-2 melanoma): 10.6 µM
GI50 (SN12C renal): 1.72 µM
TGI (SN12C renal): > 33.3 µM

CC(=O)/C(=C/c1ccccc1)C(=O)CC(C)C
GI50 (NCI-H226 lung): 25.1 µM
TGI (NCI-H226 lung): 71.4 µM
GI50 (SK-MEL-5 melanoma): 13.5 µM
TGI (SK-MEL-5 melanoma): 26.9 µM
GI50 (HOP-62 NSCLC): 26.8 µM
TGI (HOP-62 NSCLC): 71.8 µM
GI50 (EKVX NSCLC): 17.3 µM
TGI (EKVX NSCLC): 40.9 µM
GI50 (SNB-75 CNS): 21.2 µM
TGI (SNB-75 CNS): 42.4 µM
GI50 (TK-10 renal): 23.9 µM
TGI (TK-10 renal): 50.5 µM
GI50 (786-0 renal): 17.5 µM
TGI (786-0 renal): 32.5 µM
GI50 (OVCAR-8 ovarian): 17.6 µM
TGI (OVCAR-8 ovarian): 53 µM
GI50 (SK-MEL-2 melanoma): 24.5 µM
TGI (SK-MEL-2 melanoma): 60.7 µM
GI50 (SN12C renal): 14.3 µM
TGI (SN12C renal): 39 µM

CC(C)N1CCN(c2ccncc2S(=O)(=O)N2CCCCC2)CC1
TGI (NCI-H226 lung): > 100 µM
TGI (SK-MEL-5 melanoma): > 100 µM
TGI (HOP-62 NSCLC): > 100 µM
TGI (EKVX NSCLC): > 100 µM
TGI (SNB-75 CNS): > 100 µM
TGI (TK-10 renal): > 100 µM
TGI (786-0 renal): > 100 µM
TGI (OVCAR-8 ovarian): > 100 µM
TGI (SK-MEL-2 melanoma): > 100 µM
TGI (SN12C renal): > 100 µM

CO[C@H]1C=CO[C@@]2(C)Oc3c(C)c(O)c4c(O)c(c(CN5CCN(C)CC5)c(O)c4c3C2=O)NC(=O)/C(C)=C\C=C[C@H](C)[C@H](O)C(C)[C@@H](O)C(C)[C@H](OC(C)=O)[C@@H]1C (stereo not given in full)
TGI (NCI-H226 lung): > 100 µM
TGI (SK-MEL-5 melanoma): 56.4 µM
TGI (HOP-62 NSCLC): > 100 µM
TGI (EKVX NSCLC): > 100 µM
TGI (SNB-75 CNS): > 100 µM
TGI (TK-10 renal): > 100 µM
TGI (786-0 renal): > 100 µM
TGI (OVCAR-8 ovarian): > 100 µM
TGI (SK-MEL-2 melanoma): > 100 µM
TGI (SN12C renal): > 93.9 µM

CCCCCCCCCCCCCCCCCc1nccn1CCOCCO
GI50 (NCI-H226 lung): 4.36 µg/mL
TGI (NCI-H226 lung): 10 µg/mL
GI50 (SK-MEL-5 melanoma): 4.87 µg/mL
TGI (SK-MEL-5 melanoma): 9.61 µg/mL
GI50 (HOP-62 NSCLC): 5.37 µg/mL
TGI (HOP-62 NSCLC): 10.8 µg/mL
GI50 (EKVX NSCLC): 4.83 µg/mL
TGI (EKVX NSCLC): 10.3 µg/mL
GI50 (SNB-75 CNS): 4.88 µg/mL
TGI (SNB-75 CNS): 9.7 µg/mL
GI50 (TK-10 renal): 5.31 µg/mL
TGI (TK-10 renal): 10.4 µg/mL
GI50 (786-0 renal): 6.19 µg/mL
TGI (786-0 renal): 11.7 µg/mL
GI50 (OVCAR-8 ovarian): 5.64 µg/mL
TGI (OVCAR-8 ovarian): 11.6 µg/mL
GI50 (SK-MEL-2 melanoma): 7.58 µg/mL
TGI (SK-MEL-2 melanoma): 14 µg/mL
GI50 (SN12C renal): 5.11 µg/mL
TGI (SN12C renal): 10.1 µg/mL

O=C1/C(=C/c2ccccc2)CN(C(=O)C(Cl)Cl)C/C1=C\c1ccccc1
GI50 (NCI-H226 lung): 1.22 µM
TGI (NCI-H226 lung): 5.17 µM
GI50 (SK-MEL-5 melanoma): 0.698 µM
TGI (SK-MEL-5 melanoma): 1.94 µM
GI50 (HOP-62 NSCLC): 1.39 µM
TGI (HOP-62 NSCLC): 2.84 µM
GI50 (EKVX NSCLC): 0.894 µM
TGI (EKVX NSCLC): 3.06 µM
GI50 (SNB-75 CNS): 1.09 µM
TGI (SNB-75 CNS): 2.31 µM
GI50 (TK-10 renal): 1.79 µM
TGI (TK-10 renal): 3.22 µM
GI50 (786-0 renal): 1.38 µM
TGI (786-0 renal): 2.82 µM
GI50 (OVCAR-8 ovarian): 0.442 µM
TGI (OVCAR-8 ovarian): 1.68 µM
GI50 (SK-MEL-2 melanoma): 1.79 µM
TGI (SK-MEL-2 melanoma): 4.07 µM
GI50 (SN12C renal): 0.43 µM
TGI (SN12C renal): 1.26 µM

N#Cc1c(NCc2ccccc2)nc(NCc2ccccc2)c(C#N)c1-c1ccc(O)cc1
GI50 (NCI-H226 lung): 14.3 µM
TGI (NCI-H226 lung): 67.1 µM
GI50 (SK-MEL-5 melanoma): 15.3 µM
TGI (SK-MEL-5 melanoma): 34.3 µM
GI50 (HOP-62 NSCLC): 17.3 µM
TGI (HOP-62 NSCLC): 93 µM
GI50 (EKVX NSCLC): 48.5 µM
TGI (EKVX NSCLC): > 100 µM
GI50 (SNB-75 CNS): 67.8 µM
TGI (SNB-75 CNS): > 100 µM
GI50 (TK-10 renal): 22.6 µM
TGI (TK-10 renal): 69.4 µM
GI50 (786-0 renal): 23 µM
TGI (786-0 renal): > 100 µM
GI50 (OVCAR-8 ovarian): 58.1 µM
TGI (OVCAR-8 ovarian): > 100 µM
GI50 (SK-MEL-2 melanoma): 41.1 µM
TGI (SK-MEL-2 melanoma): 90.7 µM
GI50 (SN12C renal): 5.99 µM
TGI (SN12C renal): 53.2 µM

COc1ccc(/C(=N\NC(=O)NN)C(c2ccc(OC)cc2)C2(O)C(=O)Nc3c(Cl)cc(Cl)cc32)cc1 (stereo not given)
TGI (NCI-H226 lung): > 100 µM
TGI (SK-MEL-5 melanoma): > 100 µM
TGI (HOP-62 NSCLC): > 100 µM
TGI (EKVX NSCLC): > 100 µM
TGI (SNB-75 CNS): > 100 µM
TGI (TK-10 renal): > 100 µM
TGI (786-0 renal): > 100 µM
TGI (OVCAR-8 ovarian): > 100 µM
TGI (SK-MEL-2 melanoma): > 100 µM
TGI (SN12C renal): > 100 µM

C=C(CN1CCN(c2ccc(C(F)(F)F)cc2)CC1)c1ccc(C(=O)Nc2ccccc2N)cc1
GI50 (NCI-H226 lung): 7.51 µM
TGI (NCI-H226 lung): > 60.5 µM
GI50 (SK-MEL-5 melanoma): 4.43 µM
TGI (SK-MEL-5 melanoma): > 100 µM
GI50 (HOP-62 NSCLC): 8.38 µM
TGI (HOP-62 NSCLC): > 45 µM
GI50 (EKVX NSCLC): 12.3 µM
TGI (EKVX NSCLC): > 100 µM
GI50 (SNB-75 CNS): 12.4 µM
TGI (SNB-75 CNS): 51.8 µM
GI50 (TK-10 renal): 21 µM
TGI (TK-10 renal): > 82.4 µM
GI50 (786-0 renal): 2.85 µM
TGI (786-0 renal): > 100 µM
GI50 (OVCAR-8 ovarian): 6.95 µM
TGI (OVCAR-8 ovarian): > 100 µM
GI50 (SK-MEL-2 melanoma): > 100 µM
TGI (SK-MEL-2 melanoma): > 100 µM
GI50 (SN12C renal): 6.37 µM
TGI (SN12C renal): > 100 µM

Source: PubChem BioAssay (NCI)
